These results are taken from patent US20260284049A1 (BRISTOL-MYERS SQUIBB COMPANY, priority 2023, published 2026).

Like-named read-outs stand apart in the source and are kept apart here.

For data set [1], the system named is VTE prevention in orthopedic surgery. Conditions: cited from earlier work; for VTE prevention in orthopedic surgery vs enoxaparin 40 mg once daily: historical Phase 3 studies; for bleeding: Phase 2 orthopedic surgery studies and in combination with antiplatelets after an ACS.
Data set [2] deals with participants undergoing primary unilateral elective TKR surgery.
Data set [3] relates to participants with ischemic stroke or TIA. The following applies: for Hemorragic Stroke Incidence Rate (n/N %) / Subjects With Hemorragic Stroke n: up to Day 21. From the text:
The study enrolled participants ≥40 years of age who had ischemic stroke or TIA. Ischemic stroke was defined as a neurological deficit attributable to a non-lacunar, acute brain infarction detected by neuroimaging and relevant to the clinical symptoms and National Institutes of Health Stroke Score (NIHSS) ≤7 at the time of randomization. TIA was defined as acute onset neurological deficit attributable to focal ischemia of the brain by history or examination, with complete resolution of the deficit and no brain infarction on neuroimaging and ABCD score ≥6 or presence of motor symptoms. Evidence of relevant intracranial or cervical arterial atherosclerotic plaque, ulceration or thrombus in a feeding artery documented by imaging was required regardless of whether the index event was ischemic stroke or TIA, and all participants were required to have a Modified Rankin Score ≤3 before the index event. […] Following informed consent, participants received ASA 100 mg QD and a single loading dose of clopidogrel 300 mg if not already given as standard of care. […] A second MRI was performed on Day 90±6 days. All participants were required to remain on study treatment until the Day 90 MRI was performed up to Day 96.
From 27 Jan. […] The 200 mg BID arm was opened on 5 Jun.

Data set [4] can be described thus: clinical. The following applies: human, in vivo, po, median Tmax, healthy volunteers.
The test system of data set [5] is cardiac potassium (hERG/IKr) channel. Description: In vitro cardiac potassium channel current inhibition. It is filed as cell-based. The following applies: concentrations that greatly exceed unbound plasma concentrations.
The subject of data set [6] is thrombin generation. Description: AXIOMATIC-TKR: Thrombin Generation Assay (TGA): peak height, ETP, lag time. It is filed as in vivo, human. The following applies: Milvexian 25 mg QD; Day 10-14. An excerpt:
(§1) (AXIOMATIC-TKR Phase II).
As used herein, “Thrombin Generation Assay (TGA)” is a global coagulation assay that evaluates the thrombogenic capacity of a plasma sample and has been proposed that it may better reflect prothrombotic or hemorrhagic states than conventional clotting assays. In the traditional TGA, coagulation of citrated plasma is initiated through the extrinsic pathway by adding tissue factor, phospholipids, and calcium. For this study, in the in-vitro thrombin generation assay (TGA) using human platelet-rich plasma, and a kaolin slurry was used instead to initiate coagulation through the contact activation pathway. Thrombin generation is continuously monitored through the product released by cleavage of a thrombin-specific fluorogenic substrate.
(§2) Assessment of the dose-response for the occurrence of any bleeding was a secondary objective.
(§3) PD analyses were performed on the PD analysis set, defined as subjects who had at least one valid blood sample drawn for PD. Descriptive statistics (N, mean, SD, median, range, CV (%) and IQ range) were used to summarize PD response at each nominal sampling time point by treatment group. Changes from baseline were summarized when applicable. PD response outside of limit of quantitation were not to be imputed and were to be noted in the summary statistics.

Data set [7] deals with QT/QTc interval (cardiac repolarization). It is filed as in vivo, human. An excerpt: The upper bound of two-sided 90% CI for the largest difference in mean change from baseline in QTc intervals (ΔQTc; […].
A total of 66 participants were enrolled in the study and randomly assigned to 1 of 4 possible treatment sequences. […].
Forty-five (68.2%) participants completed all 4 periods with study intervention as planned. […]

A short description of data set [8]: clinical. Conditions: human, in vivo, po.
Source text: as §1, §2

Data set [9] deals with activated partial thromboplastin time (aPTT). Description: AXIOMATIC-TKR: aPTT and ratio to baseline. It is filed as in vivo, human. How it is done: In some embodiments, aPTT is measured as follows: Plasma samples are incubated with Actin FS aPTT assay reagent containing a standard amount of phospholipid and contact activator (ellagic acid) which activates the intrinsic coagulation pathway. After incubating for 3 minutes, calcium chloride is added to initiate coagulation and formation of a fibrin clot is measured optically. The time to clot formation (measured in seconds) is reported as the Activated Partial Thromboplastin Time (aPTT). […]
as §3

Data set [10] deals with Factor XI Activity (Homo sapiens, UniProt P03951). Description: AXIOMATIC-TKR: FXI clotting activity (FXI:c). It is filed as in vivo. More on the design: dose or concentration left out as unconfirmed. The method, then: As used herein, “Factor XI Clotting Activity” is determined utilizing an aPTT-based 1-stage clotting time assay. Serial dilutions of normal pooled plasma are mixed with FXI-depleted plasma and the clotting times are measured according to standard aPTT protocol, to establish a reference range. Subject test plasma is treated in the same way and compared with the reference plasma.
In some embodiments, the Factor XI Clotting Activity is measured as follows: Factor XI (FXI) activity is measured using a modification of the activated partial thromboplastin time (aPTT) using Actin FS (Siemens Healthcare) on the Siemens BCS® XP analyzer. […] The reference standard, at approximately 100%, is diluted by the BCS® XP analyzer in saline to generate pre-selected calibration levels of FXI. The calibration curve is plotted with FXI activity in percent (%) on the x-axis and clotting time in seconds on the y-axis. A log/lin regression curve fit is used. […] APTT reagent (Actin FS) is added and the mixture is incubated. Following incubation, calcium chloride is added to the mixture and the time to clot formation (measured optically) is compared to the time on the calibration curve. Samples are tested at the base dilution (1:10) prepared by the BCS® XP in saline.
as §2, §3

[11] abbreviates: 40 mg QD subcutaneous, Day 1 2 h.
[12] abbreviates: 40 mg QD subcutaneous, Day 1 4 h.
The mark [13] stands for this setting: 40 mg QD subcutaneous, Day 2 Predose.
Setting [14] is: 40 mg QD subcutaneous, Day 4 4 h.
The mark [15] stands for this setting: 40 mg QD subcutaneous, Day 4 Predose.
The mark [16] stands for this setting: 40 mg QD subcutaneous, Day 10-14.

Factor XI Activity, sequence (P03951 19-625): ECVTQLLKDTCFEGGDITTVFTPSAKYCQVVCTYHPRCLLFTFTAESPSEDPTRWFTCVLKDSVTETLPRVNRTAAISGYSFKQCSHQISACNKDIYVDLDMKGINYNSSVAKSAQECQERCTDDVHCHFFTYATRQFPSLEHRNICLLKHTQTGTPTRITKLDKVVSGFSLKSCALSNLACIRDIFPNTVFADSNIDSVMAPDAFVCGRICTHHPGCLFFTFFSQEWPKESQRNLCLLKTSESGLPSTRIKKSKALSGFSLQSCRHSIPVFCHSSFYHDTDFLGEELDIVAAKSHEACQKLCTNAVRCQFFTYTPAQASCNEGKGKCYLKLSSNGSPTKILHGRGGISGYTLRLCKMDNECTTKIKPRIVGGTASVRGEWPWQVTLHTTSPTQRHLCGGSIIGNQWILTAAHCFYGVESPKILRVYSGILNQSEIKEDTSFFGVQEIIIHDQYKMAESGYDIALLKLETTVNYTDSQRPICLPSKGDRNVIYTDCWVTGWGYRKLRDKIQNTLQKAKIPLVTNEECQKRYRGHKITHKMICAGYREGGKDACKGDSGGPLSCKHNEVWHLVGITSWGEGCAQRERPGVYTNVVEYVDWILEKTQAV

In the case of `COc1ccc(-n2nc(C(N)=O)c3c2C(=O)N(c2ccc(N4CCCCC4=O)cc2)CC3)cc1` [apixaban], the “VTE prevention in orthopedic surgery vs enoxaparin 40 mg once daily” value in [1] (2.5 mg twice daily) is “superior to enoxaparin”. For the same molecule, in [1], the bleeding entry was “dose-related bleeding”.
As to `C[C@@H]1CCC[C@H](n2cnc(-c3cc(Cl)ccc3-n3cc(Cl)nn3)cc2=O)c2cc(ccn2)-c2c(cnn2C(F)F)NC1=O` [milvexian, (5R,9S)-9-(4-(5-chloro-2-(4-chloro-1H-1,2,3-triazol-1-yl)phenyl)-6-oxopyrimidin-1(6H)-yl)-2^1-(difluoromethyl)-5-methyl-2^1H-3-aza-1(4,2)-pyridina-2(5,4)-pyrazolacyclonaphan-4-one], the “dose-response relationship for bleeding events” value in data set [2] (AXIOMATIC-TKR or AXIOMATIC-SSP) is on record as “No dose-response relationship was observed”. In addition, the “fatal bleeding and symptomatic intracranial hemorrhage” value in data set [2] (Phase 2 studies) was “No fatal bleeding and no increases in symptomatic intracranial hemorrhage”. For the same molecule, in [2] (milvexian BID dose regimens (N=518)), the “Total VTE, participants n” value was found to be 63. The “Hemorragic Stroke Incidence Rate (n/N %)” value in data set [3] (25 mg BID), in [3] (25 mg QD), in data set [3] (50 mg BID), in data set [3] (100 mg BID) and in data set [3] (200 mg BID) was 0 (0) % throughout. Further, the “Subjects With Hemorragic Stroke n” value in data set [3] (25 mg BID), in [3] (25 mg QD), in [3] (50 mg BID), in [3] (100 mg BID) and in data set [3] (200 mg BID) was 0 (0) throughout. The “New Ischemic Stroke, MI and All Cause Death: Subjects With Event n” value in [3] (25 mg BID, up to Day 90) is recorded as 15. Besides, the “Ischemic Stroke (n/N %)” value in [3] (25 mg QD, up to Day 90) is listed as 4.6%. In addition, the “New Ischemic Stroke, MI and All Cause Death: Subjects With Event (n/N %)” value in [3] (25 mg QD, up to Day 90) was 5.2%; in data set [3] (100 mg BID, up to Day 90) it was 5.2%; in data set [3] (200 mg BID, up to Day 90), 9.4%. Moreover, in data set [3] (25 mg twice daily, 95% CI 0.36-1.30), the “HR for clinical ischemic strokes vs placebo” value worked out at 0.69. For the same molecule, in data set [3] (200 mg BID, primarily due to AEs), the “rate of early treatment discontinuation” value is listed as 31.6%. For the same molecule, the figures for the Tmax in data set [4] (once daily) and in data set [4] (twice daily) were 2 to 3 h and around 3 h, respectively. The “inhibition of cardiac potassium (hERG/IKr) channel currents” value in [5] is reported as “weak to moderate potency”. In addition, in data set [6], the “ETP Lag Time, Measured Value, Med” value is listed as 10.33 min. Moreover, the “changes over time in HR, RR interval, PR interval, or QRS width” value in data set [7] (100 mg and 200 mg twice daily) is reported as “No consistent or clinically relevant changes”. In data set [7] (100 mg and 200 mg twice daily for 4 days), the “treatment-emergent QTcF or QTcB >480 ms or changes from baseline >60 ms” value is given as “No treatment-emergent actual values of QTcF or QTcB >480 ms or changes from baseline >60 ms were observed”. Further, the “upper bound of two-sided 90% CI for the largest ΔΔQTc (QTcF)” value in data set [7] (supratherapeutic 200 mg twice daily as solution) and in [7] (therapeutic 100 mg twice daily as capsule) was “less than 10 milliseconds” each time. For the same molecule, the QT/QTc interval prolongation result in data set [7] (therapeutic (100 mg) and supratherapeutic (200 mg) doses, ICH E14) is “does not show evidence of QT/QTc interval prolongation of clinical or regulatory concern”. Moreover, the Tmax at 96 h in data set [8] (Day 4, 25 mg and 100 mg twice daily) is around 2 h; in data set [8] (Day 4, 50 mg and 200 mg once daily), around 4 h. Moreover, in data set [9] (50 mg QD, Day 4 4 h), the “aPTT Measured Value, Med” value is 52 s.
As to `COc1c(N2C[C@@H]3CCCN[C@@H]3C2)c(F)cc2c(=O)c(C(=O)O)cn(C3CC3)c12` [moxifloxacin, reference compound], the “participants with treatment-emergent change from baseline of QTcB >60 ms” value in data set [7] (single dose of 400 mg) is reported as 1.7%.
On to `O=C(NC[C@H]1CN(c2ccc(N3CCOCC3=O)cc2)C(=O)O1)c1ccc(Cl)s1` [rivaroxaban], for which the “VTE prevention in orthopedic surgery vs enoxaparin 40 mg once daily” value in data set [1] (10 mg once daily) is recorded as “superior to enoxaparin”. In addition, the bleeding result in data set [1] is reported as “dose-related bleeding”.
enoxaparin: in data set [2] (40 mg QD subcutaneous (N=252)), the “Total VTE, participants n” value came out at 54. The “total venous thromboembolism (VTE) rate” value in [2] (40 mg once daily subcutaneous) is 21.4%. Further, the “aPTT Measured Value, Mean” value came out at 37.03 s in data set [9] (setting [11]); 29.14 s in [9] (setting [12]); 28.11 s in [9] (setting [13]); 27.37 s in data set [9] (setting [14]); 26.03 s in data set [9] (setting [15]); 27.8 s in data set [9] (setting [16]). Also, the “aPTT Measured Value, Med” value in [9] (setting [11]) is 27.5 s; in data set [9] (setting [12]), 27.75 s; in [9] (setting [13]) it was 27.4 s; in data set [9] (setting [14]), 26.1 s; in data set [9] (setting [15]) it was 25.8 s; in data set [9] (setting [16]), 25.9 s. The results for the “Factor XI Activity Measured Value, Mean” value in data set [10] (Day 1 4 h) and in data set [10] (Day 10-14) were 1.06 fraction of 1 and 1.36 fraction of 1, respectively. Besides, the “Factor XI Activity Measured Value, Med” value in data set [10] (Day 1 4 h) was 1.07 fraction of 1; in [10] (Day 10-14) it was 1.39 fraction of 1.
